# Key:
# [1] = system: trained group of panelists; test: Sensory studies in model dentifrice (trained panelists, cooling in the mouth); assay type: in vivo, human; settings: 100 ppm in model unflavored dentifrice, brushing with 1 g for 60 seconds; for Cooling after 1 hour / Max. cooling: averaged panel score 0-10
# Method: The compounds listed in Table 3 were dissolved at a concentration of 1 wt-% in propylene glycol. These solutions were then dispersed in appropriate quantities to obtain the desired final concentration of 100 ppm (parts per million) of the test compound into a model, unflavored dentifrice, the formula of which is given below (ingredients obtained from the suppliers respectively indicated in parenthesis).
# A trained group of panelists evaluated the dentifrice containing a compound of formula (I), by brushing their teeth with 1 g of the dentifrice using a toothbrush for 60 seconds, followed by spitting, without rinsing the mouth afterwards for the duration of the evaluation. Panelists evaluated and recorded the cooling performance as well as other sensorial and organoleptic attributes at different timepoints over a period of two hours. Cooling performance was rated on a scale from 0 to 10 with 0 being no effect and 10 being freezing. Scores were averaged for all panelists and the cooling intensity qualified as “N” for “none” (score of 0), “L” for “low” (score above 0, up to 1), “M” for “medium” (score above 1, up to 4), “S” for “strong” (score above 4, up to 8) and “E” for “extreme” (score above 8), which are summarized below in Table 3.
# [2] = system: trained group of panelists; test: Sensory studies in aqueous solution (trained panelists, cooling in the mouth); assay type: in vivo, human; settings: 40 ppm in aqueous solution, 20 mL swilled in the mouth for 60 seconds; for Cooling after 1 hour / Max. cooling: averaged panel score 0-10
# Method: The compounds as listed below in Table 2 were dissolved at a concentration of 1 wt-% in propylene glycol. These solutions were then dispensed in appropriate quantities into deionized water containing 0.5 wt-% Poloxamer 407 (which is a hydrophilic non-ionic surfactant, e.g., commercially available from SigmaAldrich) and 0.25 wt-% Cremaphor® RH40 (obtained from BASF) as solubilizer, to obtain the desired final concentration of 40 ppm (parts per million) of the respective compound.
# A trained group of panelists evaluated the aqueous solutions containing test compound by swilling 20 mL of the solution in the mouth for 60 seconds, followed by spitting, without rinsing the mouth afterwards for the duration of the evaluation. Panelists evaluated and recorded the cooling performance as well as other sensorial and organoleptic attributes at different timepoints over a period of two hours. Cooling performance was rated on a scale from 0 to 10 with 0 being no effect and 10 being freezing. Scores were averaged for all panelists and the cooling intensity qualified as “N” for “none” (score of 0), “L” for “low” (score above 0, up to 1), “M” for “medium” (score above 1, up to 4), “S” for “strong” (score above 4, up to 8) and “E” for “extreme” (score above 8), which are provided in Table 2.
# hTRPM8 = target: T1, hTRPM8 (Homo sapiens, UniProt Q7Z2W7); test: Assay on TRPM8 modulators: calcium imaging (Fluo-4, Flexstation) in HEK293 cell line stably expressing hTRPM8; assay type: cell-based; settings: TRPM8 agonist activity, calcium influx, HEK293 stably expressing hTRPM8, sigmoidal dose-response fit
# T1 construct: expressed in transfected cells
# T1 sequence (Q7Z2W7 whole entry): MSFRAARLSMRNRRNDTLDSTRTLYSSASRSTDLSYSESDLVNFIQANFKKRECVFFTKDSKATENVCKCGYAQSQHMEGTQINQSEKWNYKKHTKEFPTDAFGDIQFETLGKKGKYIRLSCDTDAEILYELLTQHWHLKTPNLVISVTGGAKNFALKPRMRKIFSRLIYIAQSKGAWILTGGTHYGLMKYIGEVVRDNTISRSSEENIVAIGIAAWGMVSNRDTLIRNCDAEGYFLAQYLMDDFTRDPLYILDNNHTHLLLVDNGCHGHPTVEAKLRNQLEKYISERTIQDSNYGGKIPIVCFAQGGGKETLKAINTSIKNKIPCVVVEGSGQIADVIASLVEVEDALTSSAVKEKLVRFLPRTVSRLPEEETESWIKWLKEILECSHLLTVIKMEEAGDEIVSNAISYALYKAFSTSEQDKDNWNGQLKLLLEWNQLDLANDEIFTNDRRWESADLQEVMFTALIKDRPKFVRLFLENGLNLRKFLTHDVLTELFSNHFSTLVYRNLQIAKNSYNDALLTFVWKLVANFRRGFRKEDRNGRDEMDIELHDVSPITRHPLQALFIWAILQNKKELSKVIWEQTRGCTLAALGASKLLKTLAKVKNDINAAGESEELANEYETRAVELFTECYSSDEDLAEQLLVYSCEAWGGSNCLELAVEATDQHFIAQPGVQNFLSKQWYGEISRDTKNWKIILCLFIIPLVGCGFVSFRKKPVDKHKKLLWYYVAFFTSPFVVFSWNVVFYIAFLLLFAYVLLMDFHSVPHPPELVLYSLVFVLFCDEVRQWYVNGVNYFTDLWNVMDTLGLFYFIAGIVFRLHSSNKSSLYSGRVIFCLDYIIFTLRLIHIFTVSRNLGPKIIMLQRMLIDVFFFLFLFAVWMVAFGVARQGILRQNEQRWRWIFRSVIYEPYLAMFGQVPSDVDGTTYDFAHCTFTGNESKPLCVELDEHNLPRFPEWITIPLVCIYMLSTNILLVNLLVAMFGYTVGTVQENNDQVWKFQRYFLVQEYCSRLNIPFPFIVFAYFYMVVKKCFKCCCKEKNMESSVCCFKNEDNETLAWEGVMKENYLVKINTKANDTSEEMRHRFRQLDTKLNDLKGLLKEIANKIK
# In short: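 Calcium influx monitored by Fluo-4 (2.7 μM with […] probenecid, 1 h 37 °C loading) in HEK293 cells stably expressing hTRPM8, in HEPES buffer pH 7.4 with 2 mM CaCl2. Fluorescence read 15 s before and 105 s after adding serial compound dilutions. Maximal activation relative to solvent and 31.6 μM menthol; EC50 from sigmoidal fit.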
SMILES,EC50 (hTRPM8) [nM],Time of max. cooling [1] [min],Cooling after 1 hour [1],Max. cooling [1],Time of max. cooling [2] [min],Cooling after 1 hour [2],Max. cooling [2]
"Cc1ccc(OCCN2CCN(C)CC2)c(Cc2ccccc2C#N)c1.Cl.Cl [compound 130, 2-(5-methyl-2-(2-(4-methylpiperazin-1-yl)ethoxy)benzyl)benzonitrile dihydrochloride]",–,30,"M (“M” for “medium” (score above 1, up to 4))","M (“M” for “medium” (score above 1, up to 4))",30,"S (“S” for “strong” (score above 4, up to 8))","S (“S” for “strong” (score above 4, up to 8))"
"Cc1cc(C)c(OCCN2CCN(C)CC2)c(Cc2ccccc2)c1.Cl.Cl [compound 71, 1-(2-(2-benzyl-4,6-dimethylphenoxy)ethyl)-4-methylpiperazine dihydrochloride]",–,10,"L (“L” for “low” (score above 0, up to 1))","M (“M” for “medium” (score above 1, up to 4))",20,"M (“M” for “medium” (score above 1, up to 4))","S (“S” for “strong” (score above 4, up to 8))"
"Cc1ccc(OCCN2CCN(C)CC2)c(Cc2ccccc2)c1.Cl [compound 85, 1-(2-(2-benzyl-4-methylphenoxy)ethyl)-4-methylpiperazine hydrochloride]",–,20,"L (“L” for “low” (score above 0, up to 1))","L (“L” for “low” (score above 0, up to 1))",20,"M (“M” for “medium” (score above 1, up to 4))","S (“S” for “strong” (score above 4, up to 8))"
"Cc1ccc(OCCN2CC(C)N(C)C(C)C2)c(Cc2ccccc2)c1 (stereo not shown) [compound 158, 4-(2-(2-benzyl-4-methylphenoxy)ethyl)-1,2,6-trimethylpiperazine]",300 to 1000,–,–,–,30,"M (“M” for “medium” (score above 1, up to 4))","M (“M” for “medium” (score above 1, up to 4))"
"Cc1ccc(OCCN2CCN(C)CC2)c(Cc2ccccc2)c1 [compound 77, 1-(2-(2-benzyl-4-methylphenoxy)ethyl)-4-methylpiperazine]",300 to 1000,–,–,–,10,"M (“M” for “medium” (score above 1, up to 4))","M (“M” for “medium” (score above 1, up to 4))"
"Cc1ccc(OCCN2CCOCC2)c(Cc2ccccc2)c1.Cl [compound 159, 4-(2-(2-benzyl-4-methylphenoxy)ethyl)morpholine hydrochloride]",1000 to 35000,–,–,–,5,"L (“L” for “low” (score above 0, up to 1))","M (“M” for “medium” (score above 1, up to 4))"
"Cc1cc(C)c(OCCN2CCOCC2)c(Cc2c(F)cccc2F)c1 [compound 149, 4-(2-(2-(2,6-difluorobenzyl)-4,6-dimethylphenoxy)ethyl)morpholine]",50 to 300,30,"M (“M” for “medium” (score above 1, up to 4))","M (“M” for “medium” (score above 1, up to 4))",20,"M (“M” for “medium” (score above 1, up to 4))","S (“S” for “strong” (score above 4, up to 8))"

# Second part, led by results:
EC50 (hTRPM8) [nM],SMILES,Time of max. cooling [1] [min],Cooling after 1 hour [1],Max. cooling [1],Time of max. cooling [2] [min],Cooling after 1 hour [2],Max. cooling [2]
50 to 300,"Cc1ccc(N(C)CCN2CCN(C)CC2)c(Cc2ccccc2)c1 [compound 137, 2-benzyl-N,4-dimethyl-N-(2-(4-methylpiperazin-1-yl)ethyl)aniline]",10,"L (“L” for “low” (score above 0, up to 1))","M (“M” for “medium” (score above 1, up to 4))",10,"M (“M” for “medium” (score above 1, up to 4))","S (“S” for “strong” (score above 4, up to 8))"
50 to 300,"Cc1cc(C)c(OCCN2CCOCC2)c(Cc2ccccc2F)c1 [compound 153, 4-(2-(2-(2-fluorobenzyl)-4,6-dimethylphenoxy)ethyl)morpholine]",5,"L (“L” for “low” (score above 0, up to 1))","M (“M” for “medium” (score above 1, up to 4))",20,"M (“M” for “medium” (score above 1, up to 4))","M (“M” for “medium” (score above 1, up to 4))"
< 50,"Cc1cc(C)c(OCCN2CCN(C)CC2)c(Cc2ccccc2C#N)c1.Cl [compound 118, 2-(3,5-dimethyl-2-(2-(4-methylpiperazin-1-yl)ethoxy)benzyl)benzonitrile hydrochloride]",30,"M (“M” for “medium” (score above 1, up to 4))","M (“M” for “medium” (score above 1, up to 4))",20,"S (“S” for “strong” (score above 4, up to 8))","S (“S” for “strong” (score above 4, up to 8))"
50 to 300,"Cc1cc(C)c(OCCC2CCOCC2)c(Cc2ccccc2C#N)c1 [compound 119, 2-(3,5-dimethyl-2-(2-(tetrahydro-2H-pyran-4-yl)ethoxy)benzyl)benzonitrile]",–,–,–,10,"L (“L” for “low” (score above 0, up to 1))","M (“M” for “medium” (score above 1, up to 4))"
< 50,"Cc1cc(C)c(OCCN2CCOCC2)c(Cc2ccccc2C#N)c1 [compound 122, 2-(3,5-dimethyl-2-(2-morpholinoethoxy)benzyl)benzonitrile]",10,"M (“M” for “medium” (score above 1, up to 4))","S (“S” for “strong” (score above 4, up to 8))",10,"M (“M” for “medium” (score above 1, up to 4))","S (“S” for “strong” (score above 4, up to 8))"
< 50,"Cc1cc(C)c(CCCN2CCOCC2)c(Oc2ccccc2C#N)c1 [compound 125, 2-(3,5-dimethyl-2-(3-morpholinopropyl)phenoxy)benzonitrile]",30,"M (“M” for “medium” (score above 1, up to 4))","M (“M” for “medium” (score above 1, up to 4))",10,"M (“M” for “medium” (score above 1, up to 4))","M (“M” for “medium” (score above 1, up to 4))"

# From US20230098332A1, “HETEROCYCLIC DERIVATIVES AS TRMP8 ANTAGONISTS” (Givaudan SA, priority 2020, published 2023)
